# Laboratory results from patent publication US20090105283A1, “3-HYDROQUINAZOLIN-4-ONE DERIVATIVES FOR USE AS STEAROYL CoA DESATURASE INHIBITORS” (priority 2007, published 2009).
# Target: T1, stearoyl-CoA desaturase (SCD) (Rattus norvegicus, UniProt P07308)
# T1 construct: The microsomes were quickly thawed and added to assay buffer so that a concentration of 0.4 mg/ml was achieved; from tissue
# T1 sequence (P07308 1-358): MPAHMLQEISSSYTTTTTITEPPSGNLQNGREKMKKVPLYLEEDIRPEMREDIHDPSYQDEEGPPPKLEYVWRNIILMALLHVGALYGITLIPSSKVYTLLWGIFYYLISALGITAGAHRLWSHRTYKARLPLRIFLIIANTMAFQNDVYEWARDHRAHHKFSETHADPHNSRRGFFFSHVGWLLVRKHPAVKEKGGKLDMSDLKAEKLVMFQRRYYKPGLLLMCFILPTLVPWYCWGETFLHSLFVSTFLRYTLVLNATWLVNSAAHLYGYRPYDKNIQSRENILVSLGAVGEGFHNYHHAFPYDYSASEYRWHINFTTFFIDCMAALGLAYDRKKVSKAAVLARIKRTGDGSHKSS
# Assay: SCD assay with rat liver microsomes ([3H]stearoyl CoA, adapted from Talamo and Bloch)
# Format: biochemical
# Details: Table 1; rat liver microsomes 0.2 mg/ml assay final, [3H]stearoyl CoA substrate, 30 min preincubation, 45 min reaction, room temperature
# In short: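 Liver microsomes came from diet-induced male Sprague Dawley rats and were used at 0.2 mg/ml final. Assay buffer was Tris pH 7.2 with NADH, ATP, CoA, MgCl2 and 0.1% BSA. Compounds were preincubated 30 min, then reacted 45 min at room temperature with [3H]stearoyl-CoA; after TCA stop and Bio-Bead cleanup, supernatant radioactivity was counted by scintillation.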
row,SMILES,IC50
1,"O=C(Nc1ccc2c(=O)n(Cc3ccc(F)c(Cl)c3)cnc2c1)OCc1ccccc1 [LXXIII, N-{3-[(3-chloro-4-fluorophenyl)methyl]-4-oxo(3-hydroquinazolin-7-yl)}(phenylmethoxy)carboxamide]",290 nM
2,"O=C(COc1cccc2nsnc12)Nc1ccc2ncn(Cc3ccc(Cl)c(Cl)c3)c(=O)c2c1 [XXXV, 2-benzo[c]1,2,5-thiadiazol-4-yloxy-N-{3-[(3,4-dichlorophenyl)methyl]-4-oxo(3-hydroquinazolin-6-yl)}acetamide]",21000 nM
3,"CN(C)CC(=O)OCC(=O)Nc1ccc2c(=O)n(Cc3ccc(Cl)c(Cl)c3)cnc2c1 [XC, (N-{3-[(3,4-dichlorophenyl)methyl]-4-oxo-3-hydroquinazolin-7-yl}carbamoyl)methyl 2-(dimethylamino)acetate]",310 nM
4,"CC(C)COC(=O)Nc1ccc2ncn(Cc3ccc(Cl)c(Cl)c3)c(=O)c2c1 [VII, N-{3-[(3,4-dichlorophenyl)methyl]-4-oxo(3-hydroquinazolin-6-yl)}(2-methylpropoxy)carboxamide]",7900 nM
5,"CC(=O)OCC(=O)Nc1ccc2c(=O)n(Cc3ccc(Cl)c(Cl)c3)cnc2c1 [LXIV, (N-{3-[(3,4-dichlorophenyl)methyl]-4-oxo-3-hydroquinazolin-7-yl}carbamoyl)methyl acetate]",180 nM
6,"C=CCOC(=O)Nc1ccc2ncn(Cc3ccc(Cl)cc3)c(=O)c2c1 [XIV, N-{3-[(4-chlorophenyl)methyl]-4-oxo(3-hydroquinazolin-6-yl)}prop-2-enyloxycarboxamide]",25700 nM
7,"CN(CCOC(=O)Nc1ccc2ncn(Cc3ccc(Cl)c(Cl)c3)c(=O)c2c1)Cc1ccccc1 [LXXXIV, N-{3-[(3,4-dichlorophenyl)methyl]-4-oxo(3-hydroquinazolin-6-yl)}{2-[methylbenzylamino]ethoxy}carboxamide]",11000 nM
8,"COCCOC(=O)Nc1ccc2c(=O)n(Cc3ccc(Cl)c(Cl)c3)cnc2c1 [LXVII, N-{3-[(3,4-dichlorophenyl)methyl]-4-oxo(3-hydroquinazolin-7-yl)}(2-methoxyethoxy)carboxamide]",880 nM
9,"O=C(CO)Nc1ccc2ncn(Cc3ccc(C(F)(F)F)cc3)c(=O)c2c1 [XCVII, 2-hydroxy-N-(4-oxo-3-{[4-(trifluoromethyl)phenyl]methyl}(3-hydroquinazolin-6-yl))acetamide]",3160 nM
10,"O=C(CSCc1ccccc1)Nc1ccc2ncn(Cc3ccc(Cl)c(Cl)c3)c(=O)c2c1 [LX, N-{3-[(3,4-dichlorophenyl)methyl]-4-oxo(3-hydroquinazolin-6-yl)}-2-(phenylmethylthio)acetamide]",6600 nM
11,"O=C(COc1ccccc1)Nc1ccc2c(=O)n(Cc3ccc(Cl)cc3)cnc2c1 [XLIV, N-{3-[(4-chlorophenyl)methyl]-4-oxo(3-hydroquinazolin-7-yl)}-2-phenoxyacetamide]",1600 nM
12,"O=C(Nc1ccc2c(=O)n(Cc3cccc(F)c3)cnc2c1)OCc1ccccc1 [LXIX, N-{3-[(3-fluorophenyl)methyl]-4-oxo(3-hydroquinazolin-7-yl)}(phenylmethoxy)carboxamide]",840 nM
13,"COCCNC(=O)Nc1ccc2ncn(Cc3ccc(Cl)c(Cl)c3)c(=O)c2c1 [XCIII, N-{3-[(3,4-dichlorophenyl)methyl]-4-oxo(3-hydroquinazolin-6-yl)}[(2-methoxyethyl)amino]carboxamide]",6200 nM
14,"C=CCOC(=O)Nc1ccc2ncn(Cc3ccc(Cl)c(Cl)c3)c(=O)c2c1 [X, N-{3-[(3,4-dichlorophenyl)methyl]-4-oxo(3-hydroquinazolin-6-yl)}prop-2-enyloxycarboxamide]",1500 nM
15,"O=C(COc1ccccc1)Nc1ccc2ncn(Cc3ccc4ccsc4c3)c(=O)c2c1 [XLI, N-[3-(benzo[b]thiophen-6-ylmethyl)-4-oxo(3-hydroquinazolin-6-yl)]-2-phenoxyacetamide]",8000 nM
16,"O=C(Nc1ccc2ncn(Cc3ccc(Cl)cc3)c(=O)c2c1)OCc1ccccc1 [VIII, N-{3-[(4-chlorophenyl)methyl]-4-oxo(3-hydroquinazolin-6-yl)}(phenylmethoxy)carboxamide]",190 nM
17,"O=C(COc1cccnc1)Nc1ccc2c(=O)n(Cc3ccc(Cl)cc3)cnc2c1 [XLIX, N-{3-[(4-chlorophenyl)methyl]-4-oxo(3-hydroquinazolin-7-yl)}-2-(3-pyridyloxy)acetamide]",2500 nM
18,"O=C(COc1ccccc1)Nc1ccc2ncn(Cc3ccc(F)c(Cl)c3)c(=O)c2c1 [XL, N-{3-[(3-chloro-4-fluorophenyl)methyl]-4-oxo(3-hydroquinazolin-6-yl)}-2-phenoxyacetamide]",9500 nM
19,"O=C(Nc1ccc2c(=O)n(Cc3ccc(Cl)c(F)c3)cnc2c1)OCc1cccnc1 [LXXVII, N-{3-[(4-chloro-3-fluorophenyl)methyl]-4-oxo(3-hydroquinazolin-7-yl)}(3-pyridylmethoxy)carboxamide]",250 nM
20,"O=C(Nc1ccc2ncn(Cc3ccc(Cl)c(Cl)c3)c(=O)c2c1)OCc1ccco1 [LXIII, N-{3-[(3,4-dichlorophenyl)methyl]-4-oxo(3-hydroquinazolin-6-yl)}(2-furylmethoxy)carboxamide]",440 nM
21,"O=C(CO)Nc1ccc2ncn(Cc3ccc(Cl)c(F)c3)c(=O)c2c1 [XCIX, N-{3-[(4-chloro-3-fluorophenyl)methyl]-4-oxo(3-hydroquinazolin-6-yl)}-2-hydroxyacetamide]",1160 nM

# Same assay, conditions: Table 2 (Example 21, procedures of Example 20); rat liver microsomes, [3H]stearoyl CoA substrate
row,SMILES,IC50
1,"O=C(CO)Nc1ccc2ncn(CCOc3ccc(Cl)cc3)c(=O)c2c1 [compound 74, N-(3-(2-(4-chlorophenoxy)ethyl)-4-oxo-3,4-dihydroquinazolin-6-yl)-2-hydroxyacetamide]",17000 nM
2,"COCCNC(=O)c1ccc2c(=O)n(Cc3ccc(Cl)cc3)cnc2c1 [compound 93, 3-(4-chlorobenzyl)-N-(2-methoxyethyl)-4-oxo-3,4-dihydroquinazoline-7-carboxamide]",3100 nM
3,"O=C(CO)Nc1cnc2ncn(Cc3ccc(Cl)c(Cl)c3)c(=O)c2c1 [compound 78, N-(3-(3,4-dichlorobenzyl)-4-oxo-3,4-dihydropyrido[2,3-d]pyrimidin-6-yl)-2-hydroxyacetamide]",180 nM
4,"C[C@H](c1ccc(Cl)c(C(F)(F)F)c1)n1cnc2ccc(NC(=O)CO)cc2c1=O [compound 34, (R)—N-(3-(1-(4-chloro-3-(trifluoromethyl)phenyl)ethyl)-4-oxo-3,4-dihydroquinazolin-6-yl)-2-hydroxyacetamide]",480 nM
5,"CC(=O)Nc1ccc2ncn(Cc3ccc(F)c(F)c3)c(=O)c2c1 [compound 18, N-(3-(3,4-difluorobenzyl)-4-oxo-3,4-dihydroquinazolin-6-yl)acetamide]",26000 nM
6,"O=C(Nc1cnc2ncn(Cc3ccc(Cl)cc3)c(=O)c2c1)OCc1ccccc1 [compound 80, benzyl 3-(4-chlorobenzyl)-4-oxo-3,4-dihydropyrido[2,3-d]pyrimidin-6-ylcarbamate]",78 nM
7,"O=C(NCCOc1ccccc1)c1ccc2c(=O)n(Cc3ccc(Cl)c(Cl)c3)cnc2c1 [compound 87, 3-(3,4-dichlorobenzyl)-4-oxo-N-(2-phenoxyethyl)-3,4-dihydroquinazoline-7-carboxamide]",1700 nM
8,"O=C(NCc1ccc(F)cc1)c1ccc2c(=O)n(Cc3ccc(Cl)cc3)cnc2c1 [compound 90, 3-(4-chlorobenzyl)-N-(4-fluorobenzyl)-4-oxo-3,4-dihydroquinazoline-7-carboxamide]",890 nM
9,"O=C(Nc1ccc2ncn(Cc3cccc(COc4cc(Cl)ccc4Cl)c3)c(=O)c2c1)OCc1ccccc1 [compound 62, benzyl 3-(3-((2,5-dichlorophenoxy)methyl)benzyl)-4-oxo-3,4-dihydroquinazolin-6-ylcarbamate]",620 nM
10,"O=C(Nc1ccc2ncn(C/C=C/COc3cc(Cl)ccc3Cl)c(=O)c2c1)OCc1ccccc1 [compound 103, (E)-benzyl 3-(4-(2,5-dichlorophenoxy)but-2-enyl)-4-oxo-3,4-dihydroquinazolin-6-ylcarbamate]",380 nM
11,"C[C@@H](c1ccc(Cl)c(C(F)(F)F)c1)n1cnc2ccc(NC(=O)CO)cc2c1=O [compound 102, (S)—N-(3-(1-(4-chloro-3-(trifluoromethyl)phenyl)ethyl)-4-oxo-3,4-dihydroquinazolin-6-yl)-2-hydroxyacetamide]",480 nM
12,"O=C(Nc1ccc2ncn(CCOc3ccccc3Cl)c(=O)c2c1)OCc1ccccc1 [compound 57, benzyl 3-(2-(2-chlorophenoxy)ethyl)-4-oxo-3,4-dihydroquinazolin-6-ylcarbamate]",180 nM
13,"CC(=O)OCC(=O)Nc1ccc2ncn(CCCc3ccccc3)c(=O)c2c1 [compound 24, 2-oxo-2-(4-oxo-3-(3-phenylpropyl)-3,4-dihydroquinazolin-6-ylamino)ethyl acetate]",1300 nM
14,"Cc1ccccc1OCCCn1cnc2ccc(NC(=O)CO)cc2c1=O [compound 53, 2-hydroxy-N-(4-oxo-3-(3-(o-tolyloxy)propyl)-3,4-dihydroquinazolin-6-yl)acetamide]",100 nM
15,"O=C(CO)Nc1ccc2ncn(CCCOc3ccc(Cl)cc3)c(=O)c2c1 [compound 70, N-(3-(3-(4-chlorophenoxy)propyl)-4-oxo-3,4-dihydroquinazolin-6-yl)-2-hydroxyacetamide]",3100 nM
